Data set [1] concerns HIV-1 NL4–3-HXB2-Luc pseudotyped virus expressing Env of the lab-adapted HIV-1HXB-2 (CXCR4). The class given is cell-based. The note with it: TZM-bl cells.
Data set [2] deals with HIV-1WEAUd15.410.5017 (NIH # 11578), dual-tropic (CCR5/CXCR4) clinical isolate of subtype B. The data set is classed as cell-based.
Data set [3] relates to control pseudovirus MLV-GP/VSV-G/Luc. Nature of the data set: microbe, parasite or virus in culture. The class given is cell-based.
Data set [4] concerns the target HIV-1 Reverse Transcriptase (RT) (Human immunodeficiency virus type 1 group M subtype B, UniProt P04585). Nature of the data set: Colorimetric Reverse Transcriptase Assay. The class given is biochemical.
Another data set can be described thus: in vitro. The note with it: human.
Data set [5] has as its system recombinant CD4-dependent HIV-1ADA virus in CD4-negative Cf2Th-CCR5 cells. The class given is cell-based. The note with it: escalating concentrations.

Where two headings read alike, the source gives them in different places.

For the molecule `NC[C@@H](NC(=O)c1ccc(NCC2CCCCC2)cc1)c1ncc(CO)s1` [8(fR), N-(2-amino-1-(5-(hydroxymethyl)thiazol-2-yl)ethyl)-4-((cyclohexylmethyl)amino)benzamide], in data set [1], the “antiviral activity against HIV-1HXB-2, in words” value was “poorly active”.

`NC[C@H](NC(=O)Cc1ccc(OCC2CCCCC2)cc1)c1ncc(CO)s1` [9(fS), N-(2-amino-1-(5-(hydroxymethyl)thiazol-2-yl)ethyl)-2-(4-(cyclohexylmethoxy)phenyl)acetamide]: in data set [1], the “antiviral activity against HIV-1HXB-2, in words” value is reported as “no significant antiviral activity”.

As for `NCC(NC(=O)C(=O)NCc1ccc(Cl)c(F)c1)c1ncc(CO)s1` (stereo not shown) [compound 3, N’-[2-amino-1-[5-(hydroxymethyl)thiazol-2-yl]ethyl]-N-[(4-chloro-3-fluorophenyl)methyl]oxamide], the “antiviral activity against HIV-1HXB-2, in words” value in data set [1] is reported as “failed to show any significant antiviral activity”.

`Cc1nc(C(CN)NC(=O)c2cc3ccccc3[nH]2)sc1CO` (stereo not shown) [compound 10, N-(2-amino-1-(5-(hydroxymethyl)-4-methylthiazol-2-yl)ethyl)-1H-indole-2-carboxamide]: the “antiviral activity against HIV-1HXB-2, in words” value in data set [1] is “virtually inactive”.

`Cl.Cl.NC[C@@H](NC(=O)CNCc1ccc(Cl)cc1)c1ncc(CO)s1` [4(fR), N-(2-amino-1-(5-(hydroxymethyl)thiazol-2-yl)ethyl)-2-((4-chlorobenzyl)amino)acetamide dihydrochloride]: the “antiviral activity against HIV-1HXB-2, in words” value in data set [1] is “None of these derivatives showed any appreciable antiviral activity”.

For `Cl.NCCNC(=O)c1ccc(-c2ccc(Cl)c(F)c2)[nH]1` [compound 14, N-(2-aminoethyl)-5-(4-chloro-3-fluorophenyl)-1H-pyrrole-2-carboxamide hydrochloride], the “antiviral activity against HIV-1HXB-2, in words” value in data set [1] is recorded as “low μM range”.

In the case of `NCC(NC(=O)c1ccc(-c2ccc(Cl)cc2)[nH]1)c1nccs1` [13(fR), N-(2-amino-1-(thiazol-2-yl)ethyl)-5-(4-chlorophenyl)-1H-pyrrole-2-carboxamide], in data set [2], the “antiviral activity against the clinical isolate HIV-1WEAUd15.410.5017, in words” value is “best antiviral activity”. The “activity against control pseudovirus VSV-G, in words” value in data set [3] is listed as “poorly active against VSV-G”.

Consider `Cc1nc(C(CN)NC(=O)NC(=O)c2ccc(Cl)cc2)sc1CO` (stereo not shown) [compound 5, N-((2-amino-1-(5-(hydroxymethyl)-4-methylthiazol-2-yl)ethyl)carbamoyl)-4-chlorobenzamide], for which the “antiviral activity against HIV-1HXB-2, in words” value in data set [1] is recorded as “failed to show any significant antiviral activity”.

Consider `O=C(N[C@@H](CC1CCNCC1)c1nc(CO)cs1)c1ccc(-c2ccc(C(F)(F)F)cc2)[nH]1` [18(fS), N-(1-(4-(hydroxymethyl)thiazol-2-yl)-2-(piperidin-4-yl)ethyl)-5-(4-(trifluoromethyl)phenyl)-1H-pyrrole-2-carboxamide], for which the “antiviral activity against HIV-1HXB-2, in words” value in data set [1] is reported as “low antiviral activity”.

Turning to `O=C(NC1(c2nc(CO)cs2)CCNCC1)c1ccc(-c2ccc(C(F)(F)F)cc2)[nH]1` [compound 17, N-(4-(4-(hydroxymethyl)thiazol-2-yl)piperidin-4-yl)-5-(4-(trifluoromethyl)phenyl)-1H-pyrrole-2-carboxamide], the “antiviral activity against the clinical isolate HIV-1WEAUd15.410.5017, in words” value in data set [2] is given as “best antiviral activity”.

Turning to `Cl.Cl.NC[C@H](NC(=O)CNCc1ccc(Cl)cc1)c1ncc(CO)s1` [4(fS), N-(2-amino-1-(5-(hydroxymethyl)thiazol-2-yl)ethyl)-2-((4-chlorobenzyl)amino)acetamide dihydrochloride], the “antiviral activity against HIV-1HXB-2, in words” value in data set [1] was “None of these derivatives showed any appreciable antiviral activity”.

As for `NCC(NC(=O)c1ccc(-c2ccc(Cl)cc2)[nH]1)c1nccs1` [13(fS), N-(2-amino-1-(thiazol-2-yl)ethyl)-5-(4-chlorophenyl)-1H-pyrrole-2-carboxamide], the “antiviral activity against the clinical isolate HIV-1WEAUd15.410.5017, in words” value in data set [2] was “best antiviral activity”. Besides, the “activity against control pseudovirus VSV-G, in words” value in data set [3] is on record as “poorly active against VSV-G”.

On to `O=C(N[C@H](CC1CCNCC1)c1nc(CO)cs1)c1ccc(-c2ccc(C(F)(F)F)cc2)[nH]1` [18(fR), N-(1-(4-(hydroxymethyl)thiazol-2-yl)-2-(piperidin-4-yl)ethyl)-5-(4-(trifluoromethyl)phenyl)-1H-pyrrole-2-carboxamide], for which the “antiviral activity against HIV-1HXB-2, in words” value in data set [1] is “low antiviral activity”.

`NCC(NC(=O)c1cc2ccc(Cl)cc2[nH]1)c1nc(CO)cs1` [12(fR), N-(2-amino-1-(4-(hydroxymethyl)thiazol-2-yl)ethyl)-6-chloro-1H-indole-2-carboxamide]: the “activity against HIV-1 RT, in words” value in data set [4] is recorded as “no activity”. In “in vitro”, the CC50 was in the range of 83 to 84 µM. For the same molecule, the “antiviral activity against the clinical isolate HIV-1WEAUd15.410.5017, in words” value in data set [2] is on record as “best antiviral activity”. Also, the “activity against control pseudovirus VSV-G, in words” value in data set [3] was “poorly active against VSV-G”. For the same molecule, in data set [3] (Pseudovirus, U87/CD4/CCR5, read-out: IC50 against VSV-G), the IC50 was 15.7 ± 1 µM.

Consider `Cc1nc(C(CN)NC(=O)c2cc3cc(Cl)ccc3[nH]2)sc1CO` (stereo not shown) [compound 11, N-(2-amino-1-(5-(hydroxymethyl)-4-methylthiazol-2-yl)ethyl)-5-chloro-1H-indole-2-carboxamide], for which the “antiviral activity against HIV-1HXB-2, in words” value in data set [1] is “virtually inactive”.

With `NC[C@H](NC(=O)c1ccc(C2CCCCC2)[nH]1)c1ncc(CO)s1` [6(fS), N-(2-amino-1-(5-(hydroxymethyl)thiazol-2-yl)ethyl)-5-cyclohexyl-1H-pyrrole-2-carboxamide], the “antiviral activity against HIV-1HXB-2, in words” value in data set [1] is on record as “poorly actives”.

Turning to `CC1(C)CC(NC(=O)C(=O)Nc2ccc(Cl)cc2)CC(C)(C)N1` [NBD-556, reference compound], the “activity against HIV-1 RT, in words” value in data set [4] is reported as “no activity”. The “relative virus infectivity (enhancement of infection), in words” value in data set [5] was “enhanced the infection of the Cf2Th-CCR5 cells in a dose-dependent manner”.

For the molecule `NC[C@@H](NC(=O)c1ccc(OCC2CCCCC2)cc1)c1ncc(CO)s1` [7(fR), N-(2-amino-1-(5-(hydroxymethyl)thiazol-2-yl)ethyl)-4-(cyclohexylmethoxy)benzamide], the “antiviral activity against HIV-1HXB-2, in words” value in data set [1] is given as “poorly active”.

For `NCC(NC(=O)c1cc2ccc(Cl)cc2[nH]1)c1nc(CO)cs1` [12(fS), N-(2-amino-1-(4-(hydroxymethyl)thiazol-2-yl)ethyl)-6-chloro-1H-indole-2-carboxamide], the “antiviral activity against the clinical isolate HIV-1WEAUd15.410.5017, in words” value in data set [2] was “best antiviral activity”. For the same molecule, the “activity against control pseudovirus VSV-G, in words” value in data set [3] is “poorly active against VSV-G”. Also, the IC50 in data set [3] (read-out: IC50 against VSV-G) came out at 20.5 ± 0.5 µM.

For the molecule `Cc1cc(-c2ccc(C(F)(F)F)cn2)[nH]c1C(=O)NC(CN)c1ncc(CO)s1` (stereo not shown) [NBD-14270], the “relative virus infectivity (enhancement of infection), in words” value in data set [5] is listed as “did not enhance HIV-1 infectivity”.

As for `NC[C@@H](NC(=O)Cc1ccc(OCC2CCCCC2)cc1)c1ncc(CO)s1` [9(fR), N-(2-amino-1-(5-(hydroxymethyl)thiazol-2-yl)ethyl)-2-(4-(cyclohexylmethoxy)phenyl)acetamide], the “antiviral activity against HIV-1HXB-2, in words” value in data set [1] is given as “no significant antiviral activity”.

With `NC[C@H](NC(=O)c1ccc(OCC2CCCCC2)cc1)c1ncc(CO)s1` [7(fS), N-(2-amino-1-(5-(hydroxymethyl)thiazol-2-yl)ethyl)-4-(cyclohexylmethoxy)benzamide], the “antiviral activity against HIV-1HXB-2, in words” value in data set [1] is “poorly active”.

`NC[C@H](NC(=O)c1ccc(NCC2CCCCC2)cc1)c1ncc(CO)s1` [8(fS), N-(2-amino-1-(5-(hydroxymethyl)thiazol-2-yl)ethyl)-4-((cyclohexylmethyl)amino)benzamide]: the “antiviral activity against HIV-1HXB-2, in words” value in data set [1] is listed as “poorly active”.

Regarding `NC[C@@H](NC(=O)c1ccc(C2CCCCC2)[nH]1)c1ncc(CO)s1` [6(fR), N-(2-amino-1-(5-(hydroxymethyl)thiazol-2-yl)ethyl)-5-cyclohexyl-1H-pyrrole-2-carboxamide], in data set [1], the “antiviral activity against HIV-1HXB-2, in words” value was “poorly actives”.

For `NCC(NC(=O)c1cc2ccc(Cl)cc2[nH]1)c1nc(CO)cs1` (stereo not shown) [compound 12, N-(2-amino-1-(4-(hydroxymethyl)thiazol-2-yl)ethyl)-6-chloro-1H-indole-2-carboxamide], the “antiviral activity against HIV-1HXB-2, in words” value in data set [1] is “moderate activity”.

The values are drawn from paper PMC8511295 (European journal of medicinal chemistry, 2021).
